The target of one experiment is T1, hEg5-367H (Homo sapiens, UniProt P52732).
T1 construct: motor domain (amino acid residues 1–367) of human Eg5; His6 (C); made in house
T1 sequence (P52732 1-367): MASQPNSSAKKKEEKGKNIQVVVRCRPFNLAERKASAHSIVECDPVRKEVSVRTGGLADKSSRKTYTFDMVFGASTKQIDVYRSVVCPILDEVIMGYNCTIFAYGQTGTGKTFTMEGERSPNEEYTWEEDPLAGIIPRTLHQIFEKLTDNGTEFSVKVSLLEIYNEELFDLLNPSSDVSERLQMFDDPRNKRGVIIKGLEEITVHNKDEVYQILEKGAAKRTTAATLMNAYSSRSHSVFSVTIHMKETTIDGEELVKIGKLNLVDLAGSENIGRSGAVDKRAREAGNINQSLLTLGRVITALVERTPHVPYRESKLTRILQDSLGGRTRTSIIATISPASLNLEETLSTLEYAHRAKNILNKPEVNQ
As to the kind of experiment: ATP hydrolysis by recombinant human Eg5 motor domain (NADH-enzyme coupled assay). Format: biochemical. To be noted: for Activity as Eg5 inhibitor, in words: authors' assays. The procedure: (§1) Figure 2 Structure-activity relationship of monastrol derivatives. (A) Scheme depicting the Biginelli condensation, a one-pot reaction for preparing monastrol derivatives. […] Each data point is the average of three independent experiments. […] Each cell-based assay was performed in duplicate.
We used a modified PCR mutagenesis protocol to introduce mutations into hEg5-367H, a plasmid encoding the C-terminally His6-tagged motor domain (amino acid residues 1–367) of human Eg5. The wild-type and mutant proteins were expressed and purified using Ni-NTA affinity chromatography and concentrated to between 3 and 10 mg/ml protein as described.
(§2) ATP hydrolysis by recombinantly expressed kinesin motor domains was measured using an NADH-enzyme coupled assay. ATP hydrolysis was measured in KC25 buffer supplemented with 5 μM taxol, 1 mM ATP-KOH (pH 7.0), the appropriate concentration of motor domain, and the appropriate concentrations of taxol-polymerized microtubules.

In a further experiment the test system is BS-C-1 cells. The experiment in a line: Monoaster formation in tissue culture cells (manual count of mitotic cells). Format: cell-based, green monkey. To be noted: Chlorocebus sabaeus, read-out: Cells: monoaster formation score (drug concentration with roughly equal monastral and bipolar spindles). The procedure:
as §1
Conditions for growing the following cell lines are as described: D. rerio AB9 (37), D. melanogaster KC167 [38], and BS-C-1 green monkey kidney cells. For immunofluorescence microscopy, cells were grown on 12 mm circular coverslips to 30 % confluence, treated medium supplemented with drug and 0.2% DMSO, or a DMSO alone, for 6 hours, fixed with formaldehyde, and stained for DNA and microtubules, as described. D. melanogaster KC167 cells were cultured in Schneider's Drosophila Medium (GIBCO) whereas D. rerio AB9 cells and BS-C-1 green monkey kidney cells were cultured at 37°C in Dulbecco's Minimal medium in the presence of 10 % heat inactivated fetal calf serum.

In a further experiment the target is T2, Klp61F-364H (Drosophila melanogaster, UniProt P46863).
T2 construct: His6 (C); made in house; host or cells: vector pRSETa
T2 sequence (P46863 1-364): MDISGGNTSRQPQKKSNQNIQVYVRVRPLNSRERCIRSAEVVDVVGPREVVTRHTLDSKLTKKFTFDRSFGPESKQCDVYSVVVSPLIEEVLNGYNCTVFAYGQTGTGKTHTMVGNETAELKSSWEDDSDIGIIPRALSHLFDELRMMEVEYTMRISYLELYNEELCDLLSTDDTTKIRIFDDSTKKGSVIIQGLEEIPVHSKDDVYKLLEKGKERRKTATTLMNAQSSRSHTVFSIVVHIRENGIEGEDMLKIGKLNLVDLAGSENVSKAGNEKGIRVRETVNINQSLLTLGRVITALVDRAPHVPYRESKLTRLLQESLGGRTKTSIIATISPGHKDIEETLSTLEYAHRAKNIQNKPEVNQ
As to the kind of experiment: ATP hydrolysis by Klp-61F motor domain (NADH-enzyme coupled assay). It counts as biochemical, D. melanogaster. The procedure:
Each data point is the average of three independent experiments.
as §2

In a further experiment the target is T3, hEg5-367H (L214T) (Homo sapiens, UniProt P52732, L214T).
T3 construct: motor domain (amino acid residues 1–367) of human Eg5; His6 (C); made in house
T3 sequence (P52732 1-367 L214T): T1 sequence (P52732 1-367) with L214T
As to the kind of experiment: ATP hydrolysis by Eg5 motor domain mutant L214T. It counts as biochemical. As to conditions: data not shown.
Excerpt: Figure 4 Mutagenesis of the monastrol binding site in human Eg5. (A) Design of mutations in the human Eg5 motor domain. Amino acid side chains that are not conserved between Eg5 and conventional kinesin were targeted, either introducing chimeric or rationally designed mutations (asterix for targeted point mutants) to test the contribution of residues to the drug-sensitivity of Eg5. (B) Steady-state enzymatic parameters for engineered human Eg5 motor domain mutants. Steady-state ATP hydrolysis by Eg5 was measured using an NADH-enzyme coupled assay varying the concentration of ATP, microtubules, or monastrol to obtain the microtubule concentration for half-maximal stimulation (K0.5MT), the maximal rate of microtubule-stimulated ATP hydrolysis (kcat), and the concentration of monastrol that inhibits basal ATP hydrolysis by 50 % (IC50), as described.
We used a modified PCR mutagenesis protocol to introduce mutations into hEg5-367H, a plasmid encoding the C-terminally His6-tagged motor domain (amino acid residues 1–367) of human Eg5. […]
as §2

In the next experiment the test system is Eg5. As to conditions: cited from earlier work.
The mark [1] stands for this setting: 500 nM hEg5-367H, KC25 buffer, 1 mM ATP-KOH (pH 7.0), 1 μM taxol-stabilized microtubules, read-out: IC50 (μM), inhibition of ATP hydrolysis by Eg5 motor domain.
Where [2] appears, read: BSC-1, BS-C-1 cells, 6 hours treatment, duplicate.
[3] abbreviates: 500 nM hEg5-367H, KC25 buffer, 1 mM ATP-KOH (pH 7.0), 1 μM taxol-stabilized microtubules.

Structures are written as SMILES. Where a chain is given by its changes, count along the chain named. Like-named read-outs stand apart in the source and are kept apart here.

We go through 13 compounds from publication PMC1448180, “Small-molecule and mutational analysis of allosteric Eg5 inhibition by monastrol” (BMC Chemical Biology, 2006).

Regarding `CCOC(=O)C1=C(C)N(C)C(=S)NC1c1cccc(O)c1` (centres unmarked) [Derivative 1, ethyl 6-methyl-4-(3-hydroxyphenyl)-2-thioxo-1-methyl-1,2,3,4-tetrahydropyrimidine-5-carboxylate], the IC50 (commonly the point on the concentration scale where inhibition reaches its midpoint) at hEg5-367H was 3.3 µM. Further, in the experiment on BS-C-1 cells (BSC-1, 6 h), the EC50 is under 50 µM.
`CCOC(=O)C1=C(C)NC(=S)NC1c1ccccc1` (centres unmarked) [Derivative 4a, ethyl 6-methyl-4-phenyl-2-thioxo-1,2,3,4-tetrahydropyrimidine-5-carboxylate]: the IC50 at hEg5-367H (setting [1]) was over 200 µM. Moreover, the EC50 in the experiment with BS-C-1 cells (setting [2]) is over 200 µM.
As to `CCOC(=O)C1=C(C)NC(=S)NC1c1cccc(Br)c1` (centres unmarked) [Derivative 4e, ethyl 6-methyl-4-(3-bromophenyl)-2-thioxo-1,2,3,4-tetrahydropyrimidine-5-carboxylate], at hEg5-367H, the “Activity as Eg5 inhibitor, in words” value was “completely inactive”.
With `CCOC(=O)C1=C(C)NC(=S)N[C@H]1c1cccc(O)c1` [(S)-monastrol, reference compound], the figures for the 50% inhibitory concentration (IC50) at hEg5-367H and against Klp61F-364H were 6.1 ± 0.7 µM and 230 ± 4 µM, respectively.
In the case of `CCOC(=O)C1=C(C)NC(=S)NC1c1cccc(F)c1` (centres unmarked) [Derivative 4c, ethyl 6-methyl-4-(3-fluorophenyl)-2-thioxo-1,2,3,4-tetrahydropyrimidine-5-carboxylate], on hEg5-367H (setting [3]), the “IC50 (μM), inhibition of ATP hydrolysis by Eg5 motor domain” value (“IC50 (μM), inhibition of ATP hydrolysis” below) was “Not Inhib”. In addition, the EC50 with BS-C-1 cells (BSC-1, 6 h) was over 200 µM.
Consider `CCOC(=O)C1=C(C)NC(=O)NC1c1cccc(O)c1` (centres unmarked) [Derivative 2, ethyl 6-methyl-4-(3-hydroxyphenyl)-2-oxo-1,2,3,4-tetrahydropyrimidine-5-carboxylate], for which the “Drug sensitivity of L214T mutant, in words” value on hEg5-367H (L214T) is reported as “resistant”. The “IC50 (μM), inhibition of ATP hydrolysis” value on hEg5-367H (setting [3]) is on record as “Not Inhib”. The “Activity as Eg5 inhibitor, in words” value at hEg5-367H is “completely inactive”. Further, the EC50 in the experiment with BS-C-1 cells (setting [2]) was over 200 µM.
With `CC(=O)C1=C(C)NC(=S)NC1c1cccc(O)c1` (centres unmarked) [Derivative 5a, methyl 6-methyl-4-(3-hydroxyphenyl)-2-thioxo-1,2,3,4-tetrahydropyrimidine-5-ketone], the IC50 on hEg5-367H was 25 µM. The EC50 with BS-C-1 cells (BSC-1, 6 h) was in the range of 50 to 200 µM.
In the case of `CC1=C(C(=O)OCC(C)C)C(c2cccc(O)c2)NC(=S)N1` (centres unmarked) [Derivative 5b, isobutyl 6-methyl-4-(3-hydroxyphenyl)-2-thioxo-1,2,3,4-tetrahydropyrimidine-5-carboxylate], the IC50 on hEg5-367H (setting [1]) was found to be 3.8 µM. Further, the EC50 in the experiment with BS-C-1 cells (setting [2]) is under 50 µM.
As for `CCOC(=O)C1=C(C(C)C)NC(=S)NC1c1cccc(O)c1` (centres unmarked) [Derivative 6, ethyl 6-isopropyl-4-(3-hydroxyphenyl)-2-thioxo-1,2,3,4-tetrahydropyrimidine-5-carboxylate], the “IC50 (μM), inhibition of ATP hydrolysis” value on hEg5-367H (setting [3]) is given as “Not Inhib”. The EC50 in the experiment with BS-C-1 cells (BSC-1, 6 h) is over 200 µM.
For `CCOC(=O)C1=C(C)NC(=S)NC1c1ccc(O)cc1` (centres unmarked) [Derivative 4b] the same measures were “Not Inhib” and over 200 µM.
On to `N[C@@H](CSC(c1ccccc1)(c1ccccc1)c1ccccc1)C(=O)O` [S-trityl cysteine], for which the “Potency relative to monastrol” value in the experiment with Eg5 is “more potent than monastrol”.
For the compound `CC1=C(C(=O)OCc2ccccc2)C(c2cccc(O)c2)NC(=S)N1` (centres unmarked) [Derivative 5c, benzyl 6-methyl-4-(3-hydroxyphenyl)-2-thioxo-1,2,3,4-tetrahydropyrimidine-5-carboxylate], the IC50 on hEg5-367H worked out at 21 µM. The EC50 with BS-C-1 cells (BSC-1, 6 h) fell in the range of 50 to 200 µM.
As to `CCOC(=O)C1=C(C)NC(=S)NC1c1cccc(OC)c1` (centres unmarked) [Derivative 4d, ethyl 6-methyl-4-(3-methoxyphenyl)-2-thioxo-1,2,3,4-tetrahydropyrimidine-5-carboxylate], the “IC50 (μM), inhibition of ATP hydrolysis” value on hEg5-367H (setting [3]) is given as “Not Inhib”. In addition, in the experiment with BS-C-1 cells (BSC-1, 6 h), the EC50 was over 200 µM.
